Data reported in ChEMBL document CHEMBL1201862, “PubChem BioAssay data set” (2004).
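Method: 48-hour compound exposure of cells in 96-well plates, five concentrations, linear interpolation of endpoints. GI50 is the concentration that inhibits growth by half.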 Activity calls are given as the source filed them. Cut-off read from the data, not from the text of the source: active = GI50 up to about 1.1 µM and inactive = higher.

Columns and labels:
Test in all cases: inhibition of tumour cell growth, NCI panel, 48 h
A549 = tested on: A549
BT-549 = tested on: BT-549
CCRF-CEM = tested on: CCRF-CEM
HL-60 = tested on: HL-60
K562 = tested on: K562
LOX IMVI = tested on: LOX IMVI
MDA-MB-435 = tested on: MDA-MB-435
MDA-N = tested on: MDA-N
MOLT-4 = tested on: MOLT-4
NCI-H23 = tested on: NCI-H23
NCI/ADR-RES = tested on: NCI/ADR-RES
OVCAR-3 = tested on: OVCAR-3
OVCAR-8 = tested on: OVCAR-8
RXF 393 = tested on: RXF 393
SF-268 = tested on: SF-268
SK-MEL-5 = tested on: SK-MEL-5
SK-OV-3 = tested on: SK-OV-3
TK-10 = tested on: TK-10
UACC-257 = tested on: UACC-257
UO-31 = tested on: UO-31

| SMILES | GI50 (A549) | GI50 (BT-549) | GI50 (CCRF-CEM) | GI50 (HL-60) | GI50 (K562) | GI50 (LOX IMVI) | GI50 (MDA-MB-435) | GI50 (MDA-N) | GI50 (MOLT-4) | GI50 (NCI-H23) | GI50 (NCI/ADR-RES) | GI50 (OVCAR-3) | GI50 (OVCAR-8) | GI50 (RXF 393) | GI50 (SF-268) | GI50 (SK-MEL-5) | GI50 (SK-OV-3) | GI50 (TK-10) | GI50 (UACC-257) | GI50 (UO-31) |
| --- | --- | --- | --- | --- | --- | --- | --- | --- | --- | --- | --- | --- | --- | --- | --- | --- | --- | --- | --- | --- |
| CCOC(=O)NC(Nc1ccc(F)cc1F)(C(F)(F)F)C(F)(F)F | > 100 µM (inactive) | > 100 µM (inactive) | > 100 µM (inactive) | > 100 µM (inactive) | > 100 µM (inactive) | > 100 µM (inactive) | > 100 µM (inactive) | > 100 µM (inactive) | > 100 µM (inactive) | > 100 µM (inactive) | > 100 µM (inactive) | > 100 µM (inactive) | > 100 µM (inactive) | > 100 µM (inactive) | > 100 µM (inactive) | > 100 µM (inactive) | > 100 µM (inactive) | > 100 µM (inactive) | > 100 µM (inactive) | > 100 µM (inactive) |
| COc1ccc(OCc2nc3cc(C(F)(F)F)ccc3nc2-c2ccccc2)cc1 | > 100 µM (inactive) | > 100 µM (inactive) | > 100 µM (inactive) | > 100 µM (inactive) | > 100 µM (inactive) | > 100 µM (inactive) | > 100 µM (inactive) | > 100 µM (inactive) | > 100 µM (inactive) | > 100 µM (inactive) | > 100 µM (inactive) | > 100 µM (inactive) | > 100 µM (inactive) | > 100 µM (inactive) | > 100 µM (inactive) | > 100 µM (inactive) | > 100 µM (inactive) | > 100 µM (inactive) | > 100 µM (inactive) | > 100 µM (inactive) |
| CC(=O)Nc1cc(C(=O)Nc2cc(C(=O)N3CC(CCl)c4c3cc(N)c3ccccc43)nn2C)nn1C (stereo not given) | 0.187 µM (active) | 0.185 µM (active) | < 0.01 µM (active) | < 0.01 µM (active) | 0.0381 µM (active) | 0.0117 µM (active) | 0.138 µM (active) | 0.133 µM (active) | < 0.0112 µM (active) | < 0.0104 µM (active) | 0.541 µM (active) | 0.23 µM (active) | 0.0209 µM (active) | 0.0115 µM (active) | < 0.0132 µM (active) | 0.0178 µM (active) | 0.0362 µM (active) | 0.251 µM (active) | 0.186 µM (active) | 0.294 µM (active) |
| Cc1cc(N(CCOS(C)(=O)=O)CCOS(C)(=O)=O)ccc1/C=N/c1ccc(-c2nc(Cc3ccccc3)sc2C)cc1 | 1.33 µM (inactive) | 9.12 µM (inactive) | 0.471 µM (active) | 1.17 µM (inactive) | 5.61 µM (inactive) | 5.37 µM (inactive) | 11 µM (inactive) | 11.8 µM (inactive) | 1.23 µM (inactive) | 2.91 µM (inactive) | 10.6 µM (inactive) | 2.87 µM (inactive) | 7.53 µM (inactive) | 0.933 µM (active) | 3.99 µM (inactive) | 9.68 µM (inactive) | 0.494 µM (active) | 4.6 µM (inactive) | 12.1 µM (inactive) | 3.71 µM (inactive) |
| Clc1ccc(OCc2nnc3sc(-c4ccc(-c5ccc(Cl)cc5Cl)o4)nn23)cc1 | > 100 µM (inactive) | > 100 µM (inactive) | > 100 µM (inactive) | > 100 µM (inactive) | > 100 µM (inactive) | > 100 µM (inactive) | > 100 µM (inactive) | > 100 µM (inactive) | > 100 µM (inactive) | > 100 µM (inactive) | > 100 µM (inactive) | > 100 µM (inactive) | > 100 µM (inactive) | 16.4 µM (inactive) | > 100 µM (inactive) | > 100 µM (inactive) | > 100 µM (inactive) | > 100 µM (inactive) | > 100 µM (inactive) | > 100 µM (inactive) |
| O=C1/C(=C/c2ccc(O)c([N+](=O)[O-])c2)CCC/C1=C\c1ccc(O)c([N+](=O)[O-])c1 | 11.7 µM (inactive) | 13.3 µM (inactive) | 30 µM (inactive) | 14.6 µM (inactive) | 15.7 µM (inactive) | 9.89 µM (inactive) | 9.53 µM (inactive) | 7.57 µM (inactive) | 13.9 µM (inactive) | 12.3 µM (inactive) | 19.2 µM (inactive) | 8.36 µM (inactive) | 18.5 µM (inactive) | 10 µM (inactive) | 4.28 µM (inactive) | 9.27 µM (inactive) | 26 µM (inactive) | 23.2 µM (inactive) | 10.5 µM (inactive) | 15.2 µM (inactive) |
| CCCCCCCCCCCC[C@@H](O)[C@H]1CCC([C@H](O)CCCCC(=O)CCCCCCCC2=C[C@H](C)OC2=O)O1 (stereo not given in full) | 10.4 µM (inactive) | 9.06 µM (inactive) | 4.59 µM (inactive) | 0.991 µM (active) | 2.98 µM (inactive) | 2.34 µM (inactive) | > 21.3 µM (inactive) | > 35.2 µM (inactive) | 2.62 µM (inactive) | 0.0957 µM (active) | 12.6 µM (inactive) | > 50 µM (inactive) | 28.5 µM (inactive) | 11.6 µM (inactive) | 18.1 µM (inactive) | 0.0315 µM (active) | > 50 µM (inactive) | > 50 µM (inactive) | 7.96 µM (inactive) | 7.16 µM (inactive) |
